How the values were obtained:
Assay in all cases: relative viability (nuclei count vs DMSO), 5 days (fraction); higher = more cells survive
Neratinib + Vorinostat = compound: CCOc1cc2ncc(C#N)c(Nc3ccc(OCc4ccccn4)c(Cl)c3)c2cc1NC(=O)/C=C/CN(C)C [Neratinib] + O=C(CCCCCCC(=O)Nc1ccccc1)NO [Vorinostat] (partner 1 µM)
In short: (§1)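 Medians of duplicate plates are given as relative viability. That measure is the nuclei count in treated wells divided by the count in vehicle wells. Counts were taken on 4× images of lung cancer cell lines in 1536-well plates, 5 days after pin-tool dosing the day after seeding with one drug alone or a fixed anchor-drug dose plus five library-drug doses (not always all listed) in √10 steps.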

Neratinib + Tozasertib = compound: CCOc1cc2ncc(C#N)c(Nc3ccc(OCc4ccccn4)c(Cl)c3)c2cc1NC(=O)/C=C/CN(C)C [Neratinib] + Cc1cc(Nc2cc(N3CCN(C)CC3)nc(Sc3ccc(NC(=O)C4CC4)cc3)n2)n[nH]1 [Tozasertib] (partner 0.1 µM)
In short: as §1

Neratinib + Crizotinib = compound: CCOc1cc2ncc(C#N)c(Nc3ccc(OCc4ccccn4)c(Cl)c3)c2cc1NC(=O)/C=C/CN(C)C [Neratinib] + C[C@@H](Oc1cc(-c2cnn(C3CCNCC3)c2)cnc1N)c1c(Cl)ccc(F)c1Cl [Crizotinib] (partner 1 µM)
In short: as §1

Neratinib + Navitoclax = compound: CCOc1cc2ncc(C#N)c(Nc3ccc(OCc4ccccn4)c(Cl)c3)c2cc1NC(=O)/C=C/CN(C)C [Neratinib] + CC1(C)CCC(c2ccc(Cl)cc2)=C(CN2CCN(c3ccc(C(=O)NS(=O)(=O)c4ccc(N[C@H](CCN5CCOCC5)CSc5ccccc5)c(S(=O)(=O)C(F)(F)F)c4)cc3)CC2)C1 [Navitoclax] (partner 0.5 µM)
In short: as §1

Cell Line	relative viability (Neratinib + Vorinostat; first compound 0.01 µM)	relative viability (Neratinib + Vorinostat; first compound 0.03162 µM)	relative viability (Neratinib + Vorinostat; first compound 0.1 µM)	relative viability (Neratinib + Vorinostat; first compound 0.3162 µM)	relative viability (Neratinib + Vorinostat; first compound 1 µM)	relative viability (Neratinib + Tozasertib; first compound 0.01 µM)	relative viability (Neratinib + Tozasertib; first compound 0.03162 µM)	relative viability (Neratinib + Tozasertib; first compound 0.1 µM)	relative viability (Neratinib + Tozasertib; first compound 0.3162 µM)	relative viability (Neratinib + Tozasertib; first compound 1 µM)	relative viability (Neratinib + Crizotinib; first compound 0.01 µM)	relative viability (Neratinib + Crizotinib; first compound 0.03162 µM)	relative viability (Neratinib + Crizotinib; first compound 0.1 µM)	relative viability (Neratinib + Crizotinib; first compound 0.3162 µM)	relative viability (Neratinib + Crizotinib; first compound 1 µM)	relative viability (Neratinib + Navitoclax; first compound 0.01 µM)	relative viability (Neratinib + Navitoclax; first compound 0.03162 µM)	relative viability (Neratinib + Navitoclax; first compound 0.1 µM)	relative viability (Neratinib + Navitoclax; first compound 0.3162 µM)	relative viability (Neratinib + Navitoclax; first compound 1 µM)
COR-L 105	0.781	0.817	0.5	0.505	0.33	0.41	0.418	0.375	0.251	0.186	0.978	0.828	0.531	0.201	0.22	1.01	0.748	0.452	0.226	0.273
LK-2	0.29	0.37	0.292	0.219	0.271	0.159	0.179	0.205	0.189	0.172	0.209	0.191	0.206	0.211	0.253	0.944	0.97	0.859	0.639	0.342
PC-3 [JPC-3]	1.14	0.82	0.783	0.424	0.665	0.891	0.922	0.822	0.773	0.406	1.09	1.09	0.997	0.948	0.345	0.731	0.826	0.784	0.624	0.333
UMC-11	0.434	0.417	0.296	0.332	0.283	0.198	0.2	0.216	0.179	0.185	0.651	0.684	0.52	0.537	0.528	0.283	0.332	0.264	0.316	0.252
NCI-H2085	0.825	–	0.687	0.623	0.696	0.729	0.909	0.716	0.675	0.458	0.992	0.928	0.823	0.664	0.483	1.18	1.14	–	0.88	0.804
NCI-H441	0.794	0.817	0.747	0.777	0.633	0.611	0.775	0.666	0.384	0.334	0.73	0.74	0.587	0.606	0.268	0.767	0.571	0.707	0.624	0.173
NCI-H1666	1.14	1.08	0.901	0.879	0.87	0.615	0.563	0.538	–	0.541	1.29	1.13	0.579	0.595	0.566	0.971	–	0.685	0.311	0.347
SW 900	0.414	0.738	0.473	0.451	0.506	0.561	0.444	0.673	0.517	0.387	–	–	–	–	–	–	–	–	–	–
NCI-H2126	0.776	0.79	0.706	0.574	0.379	0.851	0.857	0.794	0.673	0.397	1.05	1.03	1.03	1.06	0.51	0.861	0.831	0.682	0.748	0.35
LU99A	0.428	0.465	0.469	0.529	0.43	0.286	0.279	0.274	0.25	0.19	0.513	0.586	0.472	0.527	0.32	–	0.881	0.708	0.799	0.359
HCC-366	0.337	0.408	0.345	0.381	0.312	0.102	0.114	0.144	0.0752	0.0557	0.653	0.766	0.46	0.48	0.519	1.08	–	0.975	1.11	1.02
EKVX	0.889	0.801	0.498	0.276	0.308	0.416	0.42	0.345	0.197	0.13	1.32	1.08	0.823	0.452	0.211	0.999	1.04	0.831	0.305	0.205
NCI-H1755	0.828	0.695	0.658	0.916	0.794	0.619	0.617	0.613	0.515	0.543	0.873	0.919	0.752	0.912	0.476	1.06	–	–	1.02	0.469
NCI-H727	1.05	1.1	–	1.11	0.899	0.675	0.535	0.5	0.53	0.34	0.844	1.02	–	0.597	0.423	0.446	0.443	–	0.4	0.267
LC-2-ad	0.662	0.739	0.687	0.664	0.709	0.448	0.424	0.455	0.388	0.277	0.456	0.457	0.41	0.386	0.294	0.519	0.398	0.411	0.315	0.135
NCI-H1793	0.765	0.849	0.473	0.487	0.355	0.317	0.354	0.293	0.176	0.143	–	–	–	–	–	0.757	0.497	0.371	0.352	0.217
HCC-827	0.929	0.975	0.817	0.395	0.205	0.414	0.428	0.396	0.268	0.136	0.986	0.996	0.778	0.7	0.176	1.02	1.09	1	0.924	0.201
